Measured values: patent publication US20240090505A1, “MULTI-SOLVENT PESTICIDAL COMPOSITIONS INCLUDING SULFOXIMINE” (CLARKE MOSQUITO CONTROL PRODUCTS, INC., priority 2020, published 2024)

Test system: Culex sp. mosquitos
Test: Laboratory test of samples with and without surfactant (Pluronic L92), knockdown and mortality
Assay type: in vivo
Settings: propylene carbonate:tributyl O-acetylcitrate 1:1
Experimental: Various amounts of different surfactants were evaluated to determine possible impacts on efficacy. In one set of trials, different amounts of sulfoxaflor were tested with and without a surfactant (Pluronic L92 from BASF).

For CC(c1ccc(C(F)(F)F)nc1)S(C)(=O)=NC#N (stereo not drawn) [Sulfoxaflor, sulfoxaflor], the 1-hour knockdown (0.5 wt% sulfoxaflor, 20 wt% surfactant (Pluronic L92)) was 2%, the 1-hour knockdown (0.5 wt% sulfoxaflor, no surfactant) was 0% and the 1-hour knockdown (1 wt% sulfoxaflor, no surfactant) was 18%.
